Experimental data published in patent publication US10150760B2, “Compounds for use in preparing heterocyclic triazole agonists of the APJ receptor” (AMGEN INC., priority 2016, dated 2018).

Target: human APJ receptor (Homo sapiens (Human), UniProt P35414)
Assay: [35S]GTPγS binding assay on membranes from CHO cells stably expressing human APJ receptor
Format: biochemical
Settings: read-out: Activity hAPJ SPA EC50 IP
Procedure, shortened: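 Membranes from CHO cells stably expressing human APJ incubated with ligand, 0.2 nM [35S]GTPγS and WGA SPA beads in HEPES pH 7.5 with 5 mM MgCl2, 200 mM NaCl, 3 μM GDP, 90 min at RT. Nonspecific binding defined with 100 μM GTPγS; EC50 by non-linear regression.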

Chain of human APJ receptor (P35414 whole entry): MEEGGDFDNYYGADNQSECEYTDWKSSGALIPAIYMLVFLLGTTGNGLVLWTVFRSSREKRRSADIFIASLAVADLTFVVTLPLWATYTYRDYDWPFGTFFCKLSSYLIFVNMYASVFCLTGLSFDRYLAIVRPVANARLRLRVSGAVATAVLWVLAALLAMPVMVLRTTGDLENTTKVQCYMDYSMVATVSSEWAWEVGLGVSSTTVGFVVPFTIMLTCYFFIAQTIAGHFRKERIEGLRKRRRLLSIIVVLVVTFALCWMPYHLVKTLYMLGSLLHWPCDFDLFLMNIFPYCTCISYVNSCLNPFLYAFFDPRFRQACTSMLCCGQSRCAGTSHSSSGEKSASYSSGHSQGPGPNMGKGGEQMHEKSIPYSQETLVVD

Question: With `COc1cccc(OC)c1-n1c(NS(=O)(=O)[C@@H](C)[C@H](C)c2ncc(C#N)cn2)nnc1[C@H]1CCOC1` (single isomer, unassigned) [Example 174.0, (2S,3R)-3-(5-cyano-2-pyrimidin-yl)-N-(4-(2,6-dimethoxyphenyl)-5-((3R)-tetrahydro-3-furanyl)-4H-1,2,4-triazol-3-yl)-2-butanesulfonamide or (2S,3R)-3-(5-cyano-2-pyrimidinyl)-N-(4-(2,6-dimethoxyphenyl)-5-((3S)-tetrahydro-3-furanyl)-4H-1,2,4-triazol-3-yl)-2-butanesulfonamide] as the molecule, how does the EC50 read?
Answer: Its EC50 is 210 nM.

Question: For `COc1cnc([C@@H](C)[C@H](C)S(=O)(=O)Nc2nnc([C@@H]3COCCO3)n2-c2c(OC)cccc2OC)nc1` (single isomer, unassigned) [Example 175.0, (2S,3R)-N-(4-(2,6-dimethoxyphenyl)-5-((2R)-1,4-dioxan-2-yl)-4H-1,2,4-triazol-3-yl)-3-(5-methoxy-2-pyrimidinyl)-2-butanesulfonamide or (2S,3R)-N-(4-(2,6-dimethoxyphenyl)-5-((2S)-1,4-dioxan-2-yl)-4H-1,2,4-triazol-3-yl)-3-(5-methoxy-2-pyrimidinyl)-2-butanesulfonamide], which EC50 is on record?
Answer: Its EC50 is 3.5 nM.

Question: `COc1cnc([C@@H](C)[C@H](C)S(=O)(=O)Nc2nnc([C@@H]3COCCO3)n2-c2c(OC)cccc2OC)nc1` (single isomer, unassigned) [Example 176.0, (2S,3R)-N-(4-(2,6-dimethoxyphenyl)-5-((2R)-1,4-dioxan-2-yl)-4H-1,2,4-triazol-3-yl)-3-(5-methoxy-2-pyrimidinyl)-2-butanesulfonamide or (2S,3R)-N-(4-(2,6-dimethoxyphenyl)-5-((2S)-1,4-dioxan-2-yl)-4H-1,2,4-triazol-3-yl)-3-(5-methoxy-2-pyrimidinyl)-2-butanesulfonamide] was tested. Which EC50 did it give?
Answer: Its EC50 is 34 nM.

Question: With `COc1cnc([C@@H](C)[C@H](C)S(=O)(=O)Nc2nnc([C@@H]3COCCO3)n2-c2c(OC)ncnc2OC)nc1` (single isomer, unassigned) [Example 177.0, (2S,3R)-N-(4,-(4,6-dimethoxy-5-pyrimidinyl)-5-((2R)-1,4-dioxan-2-yl)-4H-1,2,4-triazol-3-yl)-3-(5-methoxy-2-pyrimidinyl)-2-butanesulfonamide or (2S,3R)-N-(4-(4,6-dimethoxy-5-pyrimidinyl)-5-((2S)-1,4-dioxan-2-yl)-4H-1,2,4-triazol-3-yl)-3-(5-methoxy-2-pyrimidinyl)-2-butanesulfonamide] as the molecule, how does the EC50 read?
Answer: The EC50 was 95 nM.

Question: How did the EC50 turn out when `COc1cnc([C@@H](C)[C@H](C)S(=O)(=O)Nc2nnc([C@@H]3COCCO3)n2-c2c(OC)ncnc2OC)nc1` (single isomer, unassigned) [Example 178.0, (2S,3R)-N-(4-(4,6-dimethoxy-5-pyrimidinyl)-5-((2R)-1,4-dioxan-2-yl)-4H-1,2,4-triazol-3-yl)-3-(5-methoxy-2-pyrimidinyl)-2-butanesulfonamide or (2S,3R)-N-(4-(4,6-dimethoxy-5-pyrimidinyl)-5-((2S)-1,4-dioxan-2-yl)-4H-1,2,4-triazol-3-yl)-3-(5-methoxy-2-pyrimidinyl)-2-butanesulfonamide] was run?
Answer: The EC50 was 290 nM.

Question: For `COc1ncnc(OC)c1-n1c(NS(=O)(=O)[C@@H](C)[C@H](C)c2ncc(Cl)cn2)nnc1[C@@H]1CCCCO1` (single isomer, unassigned) [Example 191.0, (2S,3R)-3-(5-chloropyrimidin-2-yl)-N-(4-(4,6-dimethoxypyrimidin-5-yl)-5-((S)-tetrahydro-2H-pyran-2-yl)-4H-1,2,4-triazol-3-yl)butane-2-sulfonamide or (2S,3R)-3-(5-chloropyrimidin-2-yl)-N-(4-(4,6-dimethoxypyrimidin-5-yl)-5-((R)-tetrahydro-2H-pyran-2-yl)-4H-1,2,4-triazol-3-yl)butane-2-sulofnamide], which EC50 is on record?
Answer: Its EC50 is 4.1 nM.

Question: Which EC50 does the source give for `COc1ncnc(OC)c1-n1c(NS(=O)(=O)[C@@H](C)[C@H](C)c2ncc(Cl)cn2)nnc1[C@@H]1CCCCO1` (single isomer, unassigned) [Example 192.0, (2S,3R)-3-(5-chloropyrimidin-2-yl)-N-(4-(4,6-dimethoxypyrimidin-5-yl)-5-((S)-tetrahydro-2H-pyran-2-yl)-4H-1,2,4-triazol-3-yl)butane-2-sulfonamide or (2S,3R)-3-(5-chloropyrimidin-2-yl)-N-(4-(4,6-dimethoxypyrimidin-5-yl)-5-((R)-tetrahydro-2H-pyran-2-yl)-4H-1,2,4-triazol-3-yl)butane-2-sulfonamide] here?
Answer: The EC50 was 1 nM.

Question: For `COc1ncnc(OC)c1-n1c(NS(=O)(=O)[C@@H](C)[C@H](C)c2ncc(Cl)cn2)nnc1[C@@H]1COCCO1` (single isomer, unassigned) [Example 196.0, (2S,3R)-3-(5-chloropyrimidin-2-yl)-N-(4-(4,6-dimethoxypyrimidin-5-yl)-5-((R)-1,4-dioxan-2-yl)-4H-1,2,4-triazol-3-yl)butane-2-sulfonamide or (2S,3R)-3-(5-chloropyrimidin-2-yl)-N-(4-(4,6-dimethoxypyrimidin-5-yl)-5-((S)-1,4-dioxan-2-yl)-4H-1,2,4-triazol-3-yl)butane-2-sulfonamide], which EC50 is on record?
Answer: Its EC50 is 130 nM.

Question: `COc1cccc(OC)c1-n1c(NS(=O)(=O)[C@@H](C)[C@H](C)c2ncc(C)cn2)nnc1[C@H]1CN(S(C)(=O)=O)CCO1` (single isomer, unassigned) [Example 230.0] was tested. Which EC50 did it give?
Answer: Its EC50 is 450 nM.

Question: With `COc1cccc(OC)c1-n1c(NS(=O)(=O)[C@@H](C)[C@H](C)c2ncc(C)cn2)nnc1[C@H]1CN(S(C)(=O)=O)CCO1` (single isomer, unassigned) [Example 231.0] as the molecule, how does the EC50 read?
Answer: The EC50 was 880 nM.

Question: How did the EC50 turn out when `COc1ncnc(OC)c1-n1c(NS(=O)(=O)[C@@H](C)[C@H](OC)c2ncc(C)cn2)nnc1[C@@H]1Cc2ccccc2O1` (single isomer, unassigned) [Example 232.0, (1R,2S)-N-(5-((S)-2,3-dihydrobenzofuran-2-yl)-4-(4,6-dimethoxypyrimidin-5-yl)-4H-1,2,4-triazol-3-yl)-1-methoxy-1-(5-methylpyrimidin-2-yl)propane-2-sulfonamide or (1R,2S)-N-(5-((R)-2,3-dihydrobenzofuran-2-yl)-4-(4,6-dimethoxypyrimidin-5-yl)-4H-1,2,4-triazol-3-yl)-1-methoxy-1-(5-methylpyrimidin-2-yl)propane-2-sulfonamide] was run?
Answer: The EC50 was 220 nM.

Question: For `C[C@H](c1ncc(Cl)cn1)[C@H](C)S(=O)(=O)Nc1nnc([C@@H]2COCCO2)n1C1CCOCC1` (single isomer, unassigned) [Example 245.0, (2S,3R)-3-(5-chloro-2-pyrimidinyl)-N-(5-((2R)-1,4-dioxan-2-yl)-4-(tetrahydro-2H-pyran-4-yl)-4H-1,2,4-triazol-3-yl)-2-butanesulfonamide or (2S,3R)-3-(5-chloro-2-pyrimidinyl)-N-(5-((2S)-1,4-dioxan-2-yl)-4-(tetrahydro-2H-pyran-4-yl)-4H-1,2,4-triazol-3-yl)-2-butanesulfonamide], which EC50 is on record?
Answer: The EC50 was 620 nM.

Question: With `C[C@H](c1ncc(Cl)cn1)[C@H](C)S(=O)(=O)Nc1nnc([C@@H]2COCCO2)n1C1CCOCC1` (single isomer, unassigned) [Example 246.0, (2S,3R)-3-(5-chloro-2-pyrimidinyl)-N-(5-((2R)-1,4-dioxan-2-yl)-4-(tetrahydro-2H-pyran-4-yl)-4H-1,2,4-triazol-3-yl)-2-butanesulfonamide or (2S,3R)-3-(5-chloro-2-pyrimidinyl)-N-(5-((2S)-1,4-dioxan-2-yl)-4-(tetrahydro-2H-pyran-4-yl)-4H-1,2,4-triazol-3-yl)-2-butanesulfonamide] as the molecule, how does the EC50 read?
Answer: Its EC50 is over 4200 nM.

Question: With `CO[C@H](c1ncc(Cl)cn1)[C@H](C)S(=O)(=O)Nc1nnc([C@@H]2COCCO2)n1C1CCOCC1` (single isomer, unassigned) [Example 247.0, (1R,2S)-1-(5-chloro-2-pyrimidinyl)-N-(5-((2R)-1,4-dioxan-2-yl)-4-(tetrahydro-2H-pyran-4-yl)-4H-1,2,4-triazol-3-yl)-1-methoxy-2-propanesulfonamide or (1R,2S)-1-(5-chloro-2-pyrimidinyl)-N-(5-((2S)-1,4-dioxan-2-yl)-4-(tetrahydro-2H-pyran-4-yl)-4H-1,2,4-triazol-3-yl)-1-methoxy-2-propanesulfonamide] as the molecule, how does the EC50 read?
Answer: The EC50 was 240 nM.

Question: Which EC50 does the source give for `CO[C@H](c1ncc(Cl)cn1)[C@H](C)S(=O)(=O)Nc1nnc([C@@H]2COCCO2)n1C1CCOCC1` (single isomer, unassigned) [Example 248.0, (1R,2S)-1-(5-chloro-2-pyrimidinyl)-N-(5-((2R)-1,4-dioxan-2-yl)-4-(tetrahydro-2H-pyran-4-yl)-4H-1,2,4-triazol-3-yl)-1-methoxy-2-propanesulfonamide or (1R,2S)-1-(5-chloro-2-pyrimidinyl)-N-(5-((2S)-1,4-dioxan-2-yl)-4-(tetrahydro-2H-pyran-4-yl)-4H-1,2,4-triazol-3-yl)-1-methoxy-2-propanesulfonamide] here?
Answer: The EC50 was 0.58 nM.

Question: Which EC50 does the source give for `COCC(COC)n1c(NS(=O)(=O)[C@@H](C)[C@H](OC)c2ncc(Cl)cn2)nnc1[C@@H]1COCCO1` (single isomer, unassigned) [Example 250.0, (1R,2S)-1-(5-chloro-2-pyrimidinyl)-N-(4-(1,3-dimethoxy-2-propanyl)-5-((2R)-1,4-dioxan-2-yl)-4H-1,2,4-triazol-3-yl)-1-methoxy-2-propanesulfonamide or (1R,2S)-1-(5-chloro-2-pyrimidinyl)-N-(4-(1,3-dimethoxy-2-propanyl)-5-((2S)-1,4-dioxan-2-yl)-4H-1,2,4-triazol-3-yl)-1-methoxy-2-propanesulfonamide] here?
Answer: The EC50 was 48 nM.

Question: `COCC(COC)n1c(NS(=O)(=O)[C@@H](C)[C@H](OC)c2ncc(Cl)cn2)nnc1[C@@H]1COCCO1` (single isomer, unassigned) [Example 251.0, (1R,2S)-1-(5-chloro-2-pyrimidinyl)-N-(4-(1,3-dimethoxy-2-propanyl)-5-((2R)-1,4-dioxan-2-yl)-4H-1,2,4-triazol-3-yl)-1-methoxy-2-propanesulfonamide or (1R,2S)-1-(5-chloro-2-pyrimidinyl)-N-(4-(1,3-dimethoxy-2-propanyl)-5-((2S)-1,4-dioxan-2-yl)-4H-1,2,4-triazol-3-yl)-1-methoxy-2-propanesulfonamide] was tested. Which EC50 did it give?
Answer: Its EC50 is 750 nM.
